The values below come from paper PMC5460604 (Chemical Science, 2016).

The test system of one experiment is ER-BC (Bcoa0725). The settings on record: NADH, anaerobic.
The target of a further experiment is T1, ER-MT (Neomoorella thermoacetica, UniProt O52935).
T1 sequence (O52935 1-667): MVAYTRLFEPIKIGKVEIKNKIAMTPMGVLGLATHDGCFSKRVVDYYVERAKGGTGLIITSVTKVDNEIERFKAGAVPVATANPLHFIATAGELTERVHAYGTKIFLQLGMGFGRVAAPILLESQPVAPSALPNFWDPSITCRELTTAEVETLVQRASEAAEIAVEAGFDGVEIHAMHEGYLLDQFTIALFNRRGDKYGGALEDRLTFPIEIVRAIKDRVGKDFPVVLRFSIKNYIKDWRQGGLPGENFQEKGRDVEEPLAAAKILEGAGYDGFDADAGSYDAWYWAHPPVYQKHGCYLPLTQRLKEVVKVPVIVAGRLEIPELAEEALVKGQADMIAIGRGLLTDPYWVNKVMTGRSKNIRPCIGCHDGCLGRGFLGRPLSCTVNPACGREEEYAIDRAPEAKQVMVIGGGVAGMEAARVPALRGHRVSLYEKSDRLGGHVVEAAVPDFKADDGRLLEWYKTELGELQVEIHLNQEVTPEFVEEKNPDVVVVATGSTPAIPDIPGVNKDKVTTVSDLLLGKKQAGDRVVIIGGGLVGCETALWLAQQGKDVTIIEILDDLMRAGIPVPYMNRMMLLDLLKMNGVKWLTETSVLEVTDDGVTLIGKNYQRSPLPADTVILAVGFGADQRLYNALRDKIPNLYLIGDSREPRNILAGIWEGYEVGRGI
Briefly: whole-cell biotransformation, LC-MS. The experiment is classed as cell-based. The settings on record: 0.7 mM substrate; E. coli expressing ER.

Molecules are shown by their SMILES. Like-named read-outs stand apart in the source and are kept apart here.

What is called Km is the concentration of substrate that gives half-maximal velocity.

As for `O=C(O)C=CCCC(=O)O` (mixture of isomers) [compound 5, 2-hexenedioic acid], the Michaelis constant (Km) in the experiment with ER-BC (Bcoa0725) (14% isopropanol, sigmoidal kinetics) worked out at 18.9 mM.
On to `O=C(O)/C=C/c1ccccc1` [compound 4, trans-cinnamic acid], for which the Km in the experiment on ER-BC (Bcoa0725) (substrate inhibition) was determined as 0.68 mM.
Consider `O=C(O)/C=C/C=C/C(=O)O` [trans,trans-muconic acid], for which the “whole-cell biotransformation, LC-MS” value at ER-MT was “the ER-BC, ER-CA and ER-MT strains hydrogenated both isomers to adipic acid”.
